For 25 compounds, melting point and Ki results are on record in patent publication US20070244179A1, “Dihydro[1,4]dioxino[2,3-e]indazole derivatives as 5-hydroxytryptamine-6 ligands” (Wyeth, priority 2006, published 2007).

The melting point is the temperature of the solid-liquid transition. One may read the Ki as the dissociation constant of the complex between target and ligand, obtained from inhibition or displacement.

Counter-ions that a name gives are not always drawn. Where only a bound is given, the exact number is not on record here.

System in the first series: not given
Assay: not given
Conditions: not given
In turn, `CNC[C@H]1COc2ccc3[nH]nc(S(=O)(=O)c4cccc5ccccc45)c3c2O1` (as salt: hydrochloride) [Example 6, N-Methyl-1-[(2S)-9-(1-naphthylsulfonyl)-2,3-dihydro-7H-[1,4]dioxino [2,3-e]indazol-2-yl]methanamine Hydrochloride] registered a melting point of 181.3 to 183.3 °C.

As for `CCNC[C@H]1COc2ccc3[nH]nc(S(=O)(=O)c4cccc5ccccc45)c3c2O1` (as salt: hydrochloride) [Example 7, N-{[(2S)-9-(1-naphthylsulfonyl)-2,3-dihydro-7H-[1,4]dioxino[2,3-e]indazol-2-yl]-methyl}ethanamine], the melting point is 178.9 to 180.1 °C.

As to `CN(C)C[C@H]1COc2ccc3[nH]nc(S(=O)(=O)c4cccc5ccccc45)c3c2O1` (as salt: hydrochloride) [Example 8, N,N-dimethyl-1-[(2S)-9-(1-naphthylsulfonyl)-2,3-dihydro-7H-[1,4]dioxino[2,3-e]-indazol-2-yl]methanamine], the melting point lay in the range of 178.1 to 181.3 °C.

In turn, `CCN(CC)C[C@H]1COc2ccc3[nH]nc(S(=O)(=O)c4cccc5ccccc45)c3c2O1` (as salt: hydrochloride) [Example 9, N-ethyl-N-{[(2S)-9-(1-naphthylsulfonyl)-2,3-dihydro-7H-[1,4]dioxino[2,3-e]indazol-2-yl]methyl}ethanamine] had a melting point of 175.6 to 177.2 °C.

`O=S(=O)(c1cccc2ccccc12)c1n[nH]c2ccc3c(c12)O[C@@H](CN1CCCC1)CO3` (as salt: hydrochloride) [Example 10, (2S)-9-(1-naphthylsulfonyl)-2-(pyrrolidin-1-ylmethyl)-2,3-dihydro-7H-[1,4]dioxino-[2,3-e]indazole]: the melting point lay in the range of 182.6 to 184.3 °C.

The compound `O=S(=O)(c1cccc2ccccc12)c1n[nH]c2ccc3c(c12)O[C@@H](CN1CCCCC1)CO3` (as salt: hydrochloride) [Example 11, (2S)-9-(1-naphthylsulfonyl)-2-(piperidin-1-ylmethyl)-2,3-dihydro-7H-[1,4]dioxino-[2,3-e]indazole] came in with a melting point of 163.9 to 165.2 °C.

`CNC[C@@H]1COc2ccc3[nH]nc(S(=O)(=O)c4cccc5ccccc45)c3c2O1` (as salt: hydrochloride) [Example 12, N-methyl-1-[(2R)-9-(1-naphthylsulfonyl)-2,3-dihydro-7H-[1,4]dioxino[2,3-e]indazol-2-yl]methanamine] returned a melting point of over 200 °C.

With `CN(C)C[C@@H]1COc2ccc3[nH]nc(S(=O)(=O)c4cccc5ccccc45)c3c2O1` (as salt: hydrochloride) [Example 13, N,N-dimethyl-1-[(2R)-9-(1-naphthylsulfonyl)-2,3-dihydro-7H-[1,4]dioxino[2,3-e]-indazol-2-yl]methanamine], the melting point is over 200 °C.

In turn, `CCN(CC)C[C@@H]1COc2ccc3[nH]nc(S(=O)(=O)c4cccc5ccccc45)c3c2O1` (as salt: hydrochloride) [Example 14, N-ethyl-N-{[(2R)-9-(1-naphthylsulfonyl)-2,3-dihydro-7H-[1,4]dioxino[2,3-e]indazol-2yl]-methyl}ethanamine] displayed a melting point of over 200 °C.

`CCNC[C@@H]1COc2ccc3[nH]nc(S(=O)(=O)c4cccc5ccccc45)c3c2O1` (as salt: hydrochloride) [Example 15, N-{[(2R)-9-(1-naphthylsulfonyl)-2,3-dihydro-7H-[1,4]dioxino[2,3-e]indazol-2yl]methyl}-ethanamine] showed a melting point of 182 to 184 °C.

Take `O=S(=O)(c1cccc2ccccc12)c1n[nH]c2ccc3c(c12)O[C@H](CN1CCCC1)CO3` (as salt: hydrochloride) [Example 16, (2R)-9-(1-naphthylsulfonyl)-2-(pyrrolidin-1-ylmeyhyl)-2,3-dihydro-7H-[1,4]dioxino-[2,3-e]indazole]: the melting point lay in the range of 184 to 186 °C.

Take `O=S(=O)(c1cccc2ccccc12)c1n[nH]c2ccc3c(c12)O[C@H](CN1CCCCC1)CO3` (as salt: hydrochloride) [Example 17, (2R)-9-(1-naphthylsulfonyl)-2-(piperidin-1-ylmeyhyl)-2,3-dihydro-7H [1,4]dioxino-[2,3-e]indazole]: the melting point lay within 187 to 189 °C.

The target in another series is human cloned 5-HT6 receptors (Homo sapiens, UniProt P50406). The experiment in a line: Evaluation of 5-HT6 binding affinity ([3H]-LSD displacement, membranes of Hela cells).
Sequence of human cloned 5-HT6 receptors (P50406 whole entry): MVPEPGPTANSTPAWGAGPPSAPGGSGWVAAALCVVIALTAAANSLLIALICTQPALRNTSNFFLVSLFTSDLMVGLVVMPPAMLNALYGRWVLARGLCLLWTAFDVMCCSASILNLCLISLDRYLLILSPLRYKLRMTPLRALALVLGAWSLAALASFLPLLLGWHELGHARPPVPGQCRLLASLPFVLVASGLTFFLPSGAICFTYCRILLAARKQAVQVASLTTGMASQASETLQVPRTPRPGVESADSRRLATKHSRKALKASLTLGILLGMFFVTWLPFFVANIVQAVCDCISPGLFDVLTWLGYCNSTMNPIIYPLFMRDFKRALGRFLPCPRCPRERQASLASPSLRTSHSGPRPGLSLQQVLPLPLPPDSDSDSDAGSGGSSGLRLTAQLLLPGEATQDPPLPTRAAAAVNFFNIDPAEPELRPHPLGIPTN
Conditions: not given
In turn, `CNC[C@H]1COc2ccc3[nH]nc(S(=O)(=O)c4cccc5ccccc45)c3c2O1` [Example 6, N-Methyl-1-[(2S)-9-(1-naphthylsulfonyl)-2,3-dihydro-7H-[1,4]dioxino [2,3-e]indazol-2-yl]methanamine Hydrochloride] returned a Ki of 0.0445 µM.

Consider `CCNC[C@H]1COc2ccc3[nH]nc(S(=O)(=O)c4cccc5ccccc45)c3c2O1` [Example 7, N-{[(2S)-9-(1-naphthylsulfonyl)-2,3-dihydro-7H-[1,4]dioxino[2,3-e]indazol-2-yl]-methyl}ethanamine], for which the affinity, expressed as Ki, was 0.084 µM.

For the compound `CN(C)C[C@H]1COc2ccc3[nH]nc(S(=O)(=O)c4cccc5ccccc45)c3c2O1` [Example 8, N,N-dimethyl-1-[(2S)-9-(1-naphthylsulfonyl)-2,3-dihydro-7H-[1,4]dioxino[2,3-e]-indazol-2-yl]methanamine], affinity was put at a Ki of 0.0615 µM.

`CCN(CC)C[C@H]1COc2ccc3[nH]nc(S(=O)(=O)c4cccc5ccccc45)c3c2O1` [Example 9, N-ethyl-N-{[(2S)-9-(1-naphthylsulfonyl)-2,3-dihydro-7H-[1,4]dioxino[2,3-e]indazol-2-yl]methyl}ethanamine] registered a Ki of 0.0135 µM.

On to `O=S(=O)(c1cccc2ccccc12)c1n[nH]c2ccc3c(c12)O[C@@H](CN1CCCC1)CO3` [Example 10, (2S)-9-(1-naphthylsulfonyl)-2-(pyrrolidin-1-ylmethyl)-2,3-dihydro-7H-[1,4]dioxino-[2,3-e]indazole], for which the affinity, expressed as Ki, was 0.031 µM.

Compound `O=S(=O)(c1cccc2ccccc12)c1n[nH]c2ccc3c(c12)O[C@@H](CN1CCCCC1)CO3` [Example 11, (2S)-9-(1-naphthylsulfonyl)-2-(piperidin-1-ylmethyl)-2,3-dihydro-7H-[1,4]dioxino-[2,3-e]indazole] displayed a Ki of 0.079 µM.

Consider `CNC[C@@H]1COc2ccc3[nH]nc(S(=O)(=O)c4cccc5ccccc45)c3c2O1` [Example 12, N-methyl-1-[(2R)-9-(1-naphthylsulfonyl)-2,3-dihydro-7H-[1,4]dioxino[2,3-e]indazol-2-yl]methanamine], for which the affinity, expressed as Ki, was 0.0545 µM.

With `CN(C)C[C@@H]1COc2ccc3[nH]nc(S(=O)(=O)c4cccc5ccccc45)c3c2O1` [Example 13, N,N-dimethyl-1-[(2R)-9-(1-naphthylsulfonyl)-2,3-dihydro-7H-[1,4]dioxino[2,3-e]-indazol-2-yl]methanamine], the Ki was determined as 0.031 µM.

`CCN(CC)C[C@@H]1COc2ccc3[nH]nc(S(=O)(=O)c4cccc5ccccc45)c3c2O1` [Example 14, N-ethyl-N-{[(2R)-9-(1-naphthylsulfonyl)-2,3-dihydro-7H-[1,4]dioxino[2,3-e]indazol-2yl]-methyl}ethanamine] gave a Ki of 0.042 µM.

The compound `CCNC[C@@H]1COc2ccc3[nH]nc(S(=O)(=O)c4cccc5ccccc45)c3c2O1` [Example 15, N-{[(2R)-9-(1-naphthylsulfonyl)-2,3-dihydro-7H-[1,4]dioxino[2,3-e]indazol-2yl]methyl}-ethanamine] showed a Ki of 0.0325 µM.

For `O=S(=O)(c1cccc2ccccc12)c1n[nH]c2ccc3c(c12)O[C@H](CN1CCCC1)CO3` [Example 16, (2R)-9-(1-naphthylsulfonyl)-2-(pyrrolidin-1-ylmeyhyl)-2,3-dihydro-7H-[1,4]dioxino-[2,3-e]indazole], the Ki is 0.0395 µM.

Turning to `O=S(=O)(c1cccc2ccccc12)c1n[nH]c2ccc3c(c12)O[C@H](CN1CCCCC1)CO3` [Example 17, (2R)-9-(1-naphthylsulfonyl)-2-(piperidin-1-ylmeyhyl)-2,3-dihydro-7H [1,4]dioxino-[2,3-e]indazole], affinity was put at a Ki of 0.0365 µM.

Still in this series, the particulars now being: read-out: 5-HT6 Binding Ki; [3H]-LSD 3.0 nM, Hela cell membranes expressing human cloned 5-HT6 receptors, 120 minutes at room temperature.
Consider `CCCCNC[C@@H]1COc2ccc3[nH]nc(S(=O)(=O)c4cccc5ccccc45)c3c2O1` [Example 18], for which the Ki turned out to be 0.03 µM.
